≈ marks a conversion by molar mass, not a printed value. Read-outs that look alike come from different tables or passages of the source. *1 amine or outer side, *2 acyl side, *3 side chain or, on linkers, in order; H or OH if unused. Where a SMILES comes first, the peptide text is derived from it. Bridges are numbered along the chain shown (N, C = ends). [ ]: non-standard residue; d: D form. The star is where a group is joined. GABA(3S-Bn) = O=C(C[C@@H](CN[*:1])Cc1ccccc1)[*:2]; GABA(3R-Bn) = O=C(C[C@H](CN[*:1])Cc1ccccc1)[*:2]; X14 = NC[C@@H](CC(=O)*)c1cccc(-c2ccsc2)c1; X1 = NC[C@@H](CC(=O)*)c1cccc(Cl)c1; X10 = Cc1cccc([C@@H](CN)CC(=O)*)c1; Dab = NCC[C@H](N)C(=O)O; Abu = CC[C@H](N)C(=O)O; Dap = NC[C@H](N)C(=O)O
Experiments:
A. baumannii NCTC 13424 = type: cell-based
Method: (§1) The inoculum was prepared by making a direct suspension of isolated colonies (selected from an 18-24 hour Mueller-Hinton agar plate) adjusted to the 0.5 McFarland standard. […] The assays were performed in duplicate. […] The MIC values are quoted in μg/mL.

P. aeruginosa ATCC 27853 = type: cell-based
Method: as §1

E. coli CA58 = type: cell-based
Method: (§2) The inoculum was prepared by making a direct suspension of isolated colonies (selected from an 18-24 hour Mueller-Hinton agar plate) adjusted to the 0.5 McFarland standard. […] The assays were performed in duplicate. […] Several of the compounds were subjected to multiple tests, and where this is the case, the MIC presented is the median value obtained. The MIC values are quoted in μg/mL.

K. pneumoniae CA64 = type: cell-based
Method: as §2

P. aeruginosa CCUG 59347 = type: cell-based
Method: as §2

[1] = Kidney drug level after subcutaneous dose in mouse; type: in vivo; conditions: mouse, in vivo
Method: Four hours after dosing the animals were euthanised and kidneys removed, trimmed of fat and connective tissue, weighed and immediately snap-frozen. After thawing at room temperature, pairs of kidneys from each animal were placed in 2 mL conical tubes containing pre-weighed ceria-stabilised zirconium oxide beads. […] After 10 min. centrifugation at 13,000 rpm and 6° C., 200 μl of the supernatants were transferred into glass inserts and analysed by LC-MS-MS.

HK-2 cells = test: In vitro renal cell toxicity assay (HK-2); type: cell-based
Method: The in vitro renal cell toxicity assay was performed according to the following protocol. […] Cells were seeded at 7,500 cells per well in 96-well plates and allowed to adhere overnight. […] Water and DMSO levels were kept constant at 5% and 0.5% respectively. The test compounds were incubated with cells for 24 h at 37° C. 5% CO2 in a humidified atmosphere. […] Media only background values were subtracted before the data was analysed using GraphPad Prism. Individual values were normalised to the vehicle control wells for each compound. Compound concentration values were plotted as log values to enable a dose-response curve to be fitted. The bottom of the curve was constrained to zero and IC50 values were determined. IC50 values are expressed relative to that for PMB in the same experiment. Where multiple determinations have been made, median values are presented.

K. pneumoniae ATCC 13822 = type: cell-based; conditions: ATCC 13822
Method: as §1

E. coli ATCC 25922 = type: cell-based; conditions: cation-adjusted Mueller-Hinton Broth, 18-20 h, 35° C.
Method: as §1

[2] = cation-adjusted Mueller-Hinton Broth, 18-20 h, 35° C.

| Compound | MIC A. baumannii NCTC 13424 (A. baumannii NCTC 13424; [2]) | MIC P. aeruginosa ATCC 27853 (P. aeruginosa ATCC 27853; [2]) | MIC E. coli CA58 (E. coli CA58; [2]) | MIC K. pneumoniae CA64 (K. pneumoniae CA64; [2]) | MIC P. aeruginosa CCUG 59347 (P. aeruginosa CCUG 59347; [2]) | tissue level at time at 4 h ([1]; mice, 17.2 mg/kg free base sc, 4 h, read-out: 4 hr kidney level) | HK-2 rel to PMB (HK-2 cells; IC50 relative to PMB in the same experiment, 24 h) | MIC P. aeruginosa ATCC 27853 (P. aeruginosa ATCC 27853; ATCC 27853) | MIC K. pneumoniae ATCC 13822 (K. pneumoniae ATCC 13822) | MIC E. coli CA58 (E. coli CA58; CA58) | MIC K. pneumoniae CA64 (K. pneumoniae CA64; CA64) | MIC P. aeruginosa CCUG 59347 (P. aeruginosa CCUG 59347; CCUG 59347) | tissue level at time at 4 h ([1]; sc, 17.2 mg/kg) | HK-2 rel to PMB (HK-2 cells) | MIC A. baumannii NCTC 13424 (A. baumannii NCTC 13424; NCTC 13424) | MIC E. coli ATCC 25922 (E. coli ATCC 25922) |
| --- | --- | --- | --- | --- | --- | --- | --- | --- | --- | --- | --- | --- | --- | --- | --- | --- |
| CC(C)C[C@@H]1NC(=O)[C@@H](CC(C)C)NC(=O)[C@H](CCN)NC(=O)[C@@H](NC(=O)[C@H](CN)NC(=O)[C@@H](NC(=O)C[C@@H](CN)Cc2ccccc2)[C@@H](C)O)CCNC(=O)[C@H]([C@@H](C)O)NC(=O)[C@H](CCN)NC(=O)[C@H](CCN)NC1=O [Example 8, (S)-4-amino-3- benzylbutanoyl-Thr- Dap-Cyclo[Dab-Dab- DLeu-Leu-Dab-Dab- Thr], Isomer 2] ({GABA(3S-Bn)}-T[Dap][Dab][Dab][dL]L[Dab][Dab]T; lactam 3-C) | 0.25 µg/mL (≈ 0.229 µM) | 0.06 µg/mL (≈ 0.055 µM) | 16 µg/mL (≈ 14.7 µM) | 32 µg/mL (≈ 29.3 µM) | 0.5 µg/mL (≈ 0.459 µM) | – | – | – | – | – | – | – | – | – | – | – |
| CC[C@@H]1NC(=O)[C@@H](CC(C)C)NC(=O)[C@H](CCN)NC(=O)[C@@H](NC(=O)[C@H](CN)NC(=O)[C@@H](NC(=O)C[C@H](CN)c2cccc(Cl)c2)[C@@H](C)O)CCNC(=O)[C@H]([C@@H](C)O)NC(=O)[C@H](CCN)NC(=O)[C@H](CCN)NC1=O [Example 23] (X1-T[Dap][Dab][Dab][dL][Abu][Dab][Dab]T; lactam 3-C) | – | 0.25 µg/mL (≈ 0.231 µM) | 32 µg/mL (≈ 29.6 µM) | 64 µg/mL (≈ 59.1 µM) | 0.5 µg/mL (≈ 0.462 µM) | 263000 ng/g | >41 | – | – | – | – | – | – | – | – | – |
| Cc1cccc([C@@H](CN)CC(=O)N[C@H](C(=O)N[C@@H](CN)C(=O)N[C@H]2CCNC(=O)[C@H]([C@@H](C)O)NC(=O)[C@H](CCN)NC(=O)[C@H](CCN)NC(=O)[C@H](CC(C)C)NC(=O)[C@@H](Cc3ccccc3)NC(=O)[C@H](CCN)NC2=O)[C@@H](C)O)c1 [Example 21, (S)-4-amino-3-(m- tolyl)butanoyl-Thr- Dap-Cyclo[Dab-Dab- DPhe-Leu-Dab-Dab- Thr]] (X10-T[Dap][Dab][Dab][dF]L[Dab][Dab]T; lactam 3-C) | – | – | – | – | – | – | – | 0.25 µg/mL (≈ 0.222 µM) | 0.25 µg/mL (≈ 0.222 µM) | 16 µg/mL (≈ 14.2 µM) | 32 µg/mL (≈ 28.5 µM) | 0.5 µg/mL (≈ 0.445 µM) | 209000 ng/g | 26.7 | – | – |
| CC[C@@H]1NC(=O)[C@@H](CC(C)C)NC(=O)[C@H](CCN)NC(=O)[C@@H](NC(=O)[C@H](CN)NC(=O)[C@@H](NC(=O)C[C@H](CN)c2cccc(-c3ccsc3)c2)[C@@H](C)O)CCNC(=O)[C@H]([C@@H](C)O)NC(=O)[C@H](CCN)NC(=O)[C@H](CCN)NC1=O [Example 30, (S)-4-amino-3-(3- (thiophen-3-yl)phenyl)butanoyl- Thr-Dap-Cyclo[Dab- Dab-DLeu-Abu-Dab- Dab-Thr]] (X14-T[Dap][Dab][Dab][dL][Abu][Dab][Dab]T; lactam 3-C) | – | – | – | – | – | – | – | 0.25 µg/mL (≈ 0.221 µM) | – | 8 µg/mL (≈ 7.08 µM) | 16 µg/mL (≈ 14.2 µM) | 0.5 µg/mL (≈ 0.442 µM) | 252000 ng/g | 37.5 | 0.06 µg/mL (≈ 0.0531 µM) | – |
| CC(C)C[C@@H]1NC(=O)[C@@H](CC(C)C)NC(=O)[C@H](CCN)NC(=O)[C@@H](NC(=O)[C@H](CN)NC(=O)[C@@H](NC(=O)C[C@H](CN)Cc2ccccc2)[C@@H](C)O)CCNC(=O)[C@H]([C@@H](C)O)NC(=O)[C@H](CCN)NC(=O)[C@H](CCN)NC1=O [Example 7, (R)-4-amino-3- benzylbutanoyl -Thr- Dap-Cyclo[Dab-Dab- DLeu-Leu-Dab-Dab- Thr]. Isomer 1] ({GABA(3R-Bn)}-T[Dap][Dab][Dab][dL]L[Dab][Dab]T; lactam 3-C) | – | – | 16 µg/mL (≈ 14.7 µM) | 32 µg/mL (≈ 29.3 µM) | 0.25 µg/mL (≈ 0.229 µM) | – | – | – | – | – | – | – | – | – | – | 0.25 µg/mL (≈ 0.229 µM) |
